Measured values reported in PubChem BioAssay AID256 (DTP/NCI, 2004).
Values joined by “and” are separate entries in the source; they are usually repeats but may differ in a detail not shown here. Equal entries are not always repeated. Toxic doses and inconclusive results are not listed. Rule for the calls: active = survival T/C of 150% or more; inactive = T/C below 125% in these data.

Tested on: CD2F1 mice, L1210 leukemia ip, survival T/C
Experiment: NCI In Vivo Anticancer Drug Screen. Data for tumor model L1210 Leukemia (intraperitoneal) in CD2F1 (CDF1) mice
Details: endpoint: mean survival time, higher = longer survival
How it was run: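 Transplantable tumor in mice; compound-treated vs vehicle-treated groups. Read-out = treated/control ratio of the measured endpoint.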

[1] = dose: 50.0 mg/kg/injection, schedule: Q04DX003 (ip), vehicle: saline with Tween-80
[2] = dose: 100.0 mg/kg/injection, schedule: Q04DX003 (ip), vehicle: saline with Tween-80
[3] = dose: 200.0 mg/kg/injection, schedule: Q04DX003 (ip), vehicle: saline with Tween-80
[4] = dose: 50.0 mg/kg/injection, schedule: Q04DX002 (ip), vehicle: saline with Tween-80
[5] = dose: 100.0 mg/kg/injection, schedule: Q04DX002 (ip), vehicle: saline with Tween-80
[6] = dose: 200.0 mg/kg/injection, schedule: Q04DX002 (ip), vehicle: saline with Tween-80
[7] = dose: 400.0 mg/kg/injection, schedule: Q04DX002 (ip), vehicle: saline with Tween-80
[8] = dose: 100.0 mg/kg/injection, schedule: Q01DX009 (ip), vehicle: saline with Tween-80
[9] = dose: 200.0 mg/kg/injection, schedule: Q01DX009 (ip), vehicle: saline with Tween-80
[10] = dose: 400.0 mg/kg/injection, schedule: Q01DX009 (ip), vehicle: saline with Tween-80
[11] = dose: 400.0 mg/kg/injection, schedule: Q04DX003 (ip), vehicle: saline with Tween-80
[12] = dose: 100.0 mg/kg/injection, schedule: Q04DX002 (ip), vehicle: saline
[13] = dose: 100.0 mg/kg/injection, schedule: Q01DX001 (ip), vehicle: saline
[14] = dose: 100.0 mg/kg/injection, schedule: Q01DX001 (ip), vehicle: saline with Tween-80
[15] = dose: 200.0 mg/kg/injection, schedule: Q01DX001 (ip), vehicle: saline with Tween-80
[16] = dose: 400.0 mg/kg/injection, schedule: Q01DX001 (ip), vehicle: saline with Tween-80
[17] = dose: 50.0 mg/kg/injection, schedule: Q01DX009 (ip), vehicle: saline with Tween-80
[18] = dose: 50.0 mg/kg/injection, schedule: Q04DX003 (ip), vehicle: saline
[19] = dose: 25.0 mg/kg/injection, schedule: Q01DX009 (ip), vehicle: saline with Tween-80

Measured: T/C

Cc1cc(F)ccc1[NH-].Cc1cc(F)ccc1[NH-].[Cl][Pt+2][Cl]
inactive: dose: 12.5 mg/kg/injection, schedule: Q04DX003 (ip), vehicle: saline with Tween-80 106 % of control | dose: 25.0 mg/kg/injection, schedule: Q04DX003 (ip), vehicle: saline with Tween-80 101 % of control | [1] 91 % of control | [2] 95 % of control | [3] 89 % of control

CCCC(=O)Nc1ncnc2c1[nH]c(=O)n2C1OC2COP(=O)(O)OC2C1OC(=O)CCC (stereo not drawn)
inactive: dose: 6.25 mg/kg/injection, schedule: Q01DX005 (ip), vehicle: water 97 % of control | dose: 12.5 mg/kg/injection, schedule: Q01DX005 (ip), vehicle: water 93 % of control | dose: 25.0 mg/kg/injection, schedule: Q01DX005 (ip), vehicle: water 97 % of control | dose: 50.0 mg/kg/injection, schedule: Q01DX005 (ip), vehicle: water 97 % of control | dose: 100.0 mg/kg/injection, schedule: Q01DX005 (ip), vehicle: water 89 % of control

N#C[Se]C[Se]C#N
inactive: dose: 6.25 mg/kg/injection, schedule: Q01DX001 (ip), vehicle: saline with Tween-80 104 % of control

CCOc1ccccc1NCN1C(=O)c2ccccc2C1=O
inactive: [4] 95 % of control | [5] 91 % of control | [6] 95 % of control | [7] 88 % of control

NC1=Nc2ccccc2CS1
inactive: dose: 9.4 mg/kg/injection, schedule: Q01DX009 (ip), vehicle: saline 95 % of control | dose: 18.8 mg/kg/injection, schedule: Q01DX009 (ip), vehicle: saline 107 % of control | dose: 37.5 mg/kg/injection, schedule: Q01DX009 (ip), vehicle: saline 89 % of control | dose: 75.0 mg/kg/injection, schedule: Q01DX001 (ip), vehicle: saline 98 % of control

CCO/C=C1\SC(=S)N(c2ccccc2C)C1=O
inactive: [8] 106 % of control and 111 % of control | [2] 103 % of control | [9] 103 % of control and 106 % of control | [3] 108 % of control | [10] 88 % of control | [11] 113 % of control

COc1ccc(P(c2ccc(OC)cc2)c2ccc(OC)cc2)cc1
inactive: [1] 97 % of control | [2] 96 % of control | [3] 91 % of control

COc1ccc(N(C)c2ccc(C(=C3C=CC(=[N+](C)CCO)C=C3)c3ccc(N(C)CCO)cc3)cc2)cc1
inactive: dose: 6.25 mg/kg/injection, schedule: Q04DX002 (ip), vehicle: saline with Tween-80 108 % of control | dose: 25.0 mg/kg/injection, schedule: Q04DX002 (ip), vehicle: saline with Tween-80 108 % of control

SCC1=NCCN1
inactive: dose: 25.0 mg/kg/injection, schedule: Q04DX002 (ip), vehicle: saline 103 % of control | dose: 50.0 mg/kg/injection, schedule: Q04DX002 (ip), vehicle: saline 98 % of control | [12] 93 % of control and 95 % of control

NC1CCCCC1N.NC1CCCCC1N.[Cl-].[Ni] (stereo not drawn)
inactive: [4] 110 % of control

CCOC(=O)Nc1cc(Nc2ccccc2)c(N)c(N)n1
inactive: [13] 88 % of control | dose: 200.0 mg/kg/injection, schedule: Q01DX001 (ip), vehicle: saline 94 % of control

CCOC(=O)/C(C#N)=C1\CCc2cc(OC)ccc21
inactive: [8] 92 % of control | [2] 103 % of control | [9] 93 % of control | [3] 92 % of control | [10] 92 % of control | [11] 98 % of control

O=C(O)CCCCCCCCCO
inactive: [14] 91 % of control | [15] 87 % of control | [16] 86 % of control

O=c1[nH][nH]c2ccccc12
inactive: [2] 98 % of control | [3] 94 % of control | [11] 98 % of control

CCNc1nc(NCC)nc(OC)n1
inactive: [17] 95 % of control | [8] 105 % of control | [2] 87 % of control | [9] 103 % of control | [3] 89 % of control

COC(=O)c1cc(Br)c(I)c([N+](=O)[O-])c1
inactive: [8] 102 % of control | [2] 95 % of control | [9] 108 % of control | [3] 106 % of control | [10] 105 % of control | [11] 97 % of control

O=C(O)c1ccc([As](=O)(O)O)cc1[N+](=O)[O-]
inactive: [18] 105 % of control | dose: 100.0 mg/kg/injection, schedule: Q04DX003 (ip), vehicle: saline 97 % of control | dose: 200.0 mg/kg/injection, schedule: Q04DX003 (ip), vehicle: saline 95 % of control

CC(=O)OCC1OC(Oc2c([N+](=O)[O-])cc([N+](=O)[O-])c3ccccc23)C(OC(C)=O)C(OC(C)=O)C1OC(C)=O (stereo not drawn)
inactive: [5] 96 % of control | [6] 93 % of control | [7] 104 % of control

CN(C)c1ccc(/C=N/NC(=O)c2ccccc2N)c(Cl)c1
inactive: [8] 87 % of control | [9] 87 % of control

O=C(CSCCN1CCCCC1)N1c2ccccc2Sc2ccccc21
inactive: dose: 12.5 mg/kg/injection, schedule: Q04DX003 (ip), vehicle: saline 104 % of control | dose: 25.0 mg/kg/injection, schedule: Q04DX003 (ip), vehicle: saline 101 % of control | [18] 101 % of control

OC(CCl)Cc1ccccc1 (stereo not drawn)
inactive: [2] 95 % of control

C=CC/C=C/C(C)(C)C
inactive: [17] 103 % of control | [8] 100 % of control | [9] 100 % of control

CCCCCCCCCCCCNC1=CC(=O)c2nccnc2C1=O
inactive: dose: 6.25 mg/kg/injection, schedule: Q01DX009 (ip), vehicle: saline with Tween-80 98 % of control | dose: 12.5 mg/kg/injection, schedule: Q01DX009 (ip), vehicle: saline with Tween-80 95 % of control | [19] 91 % of control | [17] 91 % of control | [8] 95 % of control

C=CN(C)OC
inactive: [13] 100 % of control

NC(=O)COc1ccc(Cl)cc1Cl
inactive: [14] 98 % of control | [8] 94 % of control | [15] 94 % of control | [9] 96 % of control | [16] 94 % of control

O=C(O)CCCSc1nc2ccccc2s1
inactive: [8] 98 % of control | [2] 95 % of control | [9] 97 % of control | [3] 98 % of control | [10] 105 % of control | [11] 98 % of control

NC(=O)C(Cl)(Cl)C(Cl)(Cl)C(Cl)(Cl)Cl
inactive: [8] 100 % of control | [2] 100 % of control | [9] 93 % of control | [3] 95 % of control | [10] 90 % of control | [11] 94 % of control

CCCCCCCCCCCCCCCC(=O)N(CCCN)CCCN(CCCN)C(=O)CCCCCCCCCCCCCCC
inactive: [19] 97 % of control | [17] 89 % of control

COC(=O)c1cccc(OCC(=O)Nc2ccccc2)c1
inactive: [14] 101 % of control | [15] 93 % of control | [16] 92 % of control

O=C1Nc2ccc3c4c(ccc1c24)CC3
inactive: [14] 105 % of control | [16] 94 % of control

CN(C)S(=O)(=O)Oc1ccc(N)cc1
inactive: [2] 103 % of control | [3] 101 % of control | [11] 104 % of control

Cc1onc(-c2ccccc2)c1C(=O)O
inactive: [2] 101 % of control | [3] 93 % of control | [11] 89 % of control

COc1ccc(CN(CCO)Cc2ccccc2)cc1OC
inactive: [17] 100 % of control | [8] 90 % of control | [2] 98 % of control | [9] 100 % of control | [3] 97 % of control

CCOC(=O)N1CCc2nc3cc(OC)ccc3cc21
inactive: [14] 103 % of control | [15] 98 % of control | [16] 98 % of control

O=C(CC(=O)c1ccccc1)c1ccccc1.O=C(CC(=O)c1ccccc1)c1ccccc1.[Pd]
inactive: dose: 3.13 mg/kg/injection, schedule: Q04DX003 (ip), vehicle: distilled water + Tween-80 96 % of control | dose: 6.25 mg/kg/injection, schedule: Q04DX003 (ip), vehicle: distilled water + Tween-80 98 % of control | dose: 12.5 mg/kg/injection, schedule: Q04DX003 (ip), vehicle: distilled water + Tween-80 94 % of control | dose: 25.0 mg/kg/injection, schedule: Q04DX003 (ip), vehicle: distilled water + Tween-80 98 % of control | dose: 50.0 mg/kg/injection, schedule: Q04DX003 (ip), vehicle: distilled water + Tween-80 93 % of control | dose: 100.0 mg/kg/injection, schedule: Q04DX003 (ip), vehicle: distilled water + Tween-80 89 % of control | dose: 200.0 mg/kg/injection, schedule: Q04DX003 (ip), vehicle: distilled water + Tween-80 107 % of control

NCCN1CCCC1
inactive: [12] 96 % of control | dose: 200.0 mg/kg/injection, schedule: Q04DX002 (ip), vehicle: saline 111 % of control | dose: 400.0 mg/kg/injection, schedule: Q04DX002 (ip), vehicle: saline 103 % of control
